According to US20120214875A1, “PHENOX[…]” (priority 2011, published 2012):
“And” between values parts separate entries of the source, which are not always exact repeats. Equal entries are not always repeated.

Tests used:
[1] = Autosampler re-injection reproducibility of extracted QC samples; format: physicochemical; conditions: for Amount Found: single replicates; for % Difference: 7° C. ± 4° C.
Protocol: (§1) Phenoxybenzamine and the internal standard phenoxybenzamine-d5 were extracted from 0.2 mL of human plasma, using EDTA (potassium K2 salt) as the anticoagulant and containing 1.3% of H3PO4 as stabilizer, by solid phase extraction into 0.8 mL of 0.1% TFA in 80% methanol, followed by dilution with 0.4 mL of 0.1% TFA. An aliquot of this extract was injected into a high performance liquid chromatography system and detected using an API 3000 tandem mass spectrometer with HSID interface and quantitated using peak area ratio method. Method sensitivity and selectivity were achieved by detecting distinct precursor to product ion mass transitions for phenoxybenzamine (304.1→120.0) and the internal standard phenoxybenzamine-d5 (309.1→120.0) at defined retention times under reverse chromatographic conditions.
(§2) Blood plasma was separated from whole blood. The plasma samples should be protected from light and may be stored at −70° C. for use. The plasma samples were thawed in cold tap water and analyzed along with a set of standard samples. All samples were vortexed for about 20 seconds, centrifuged at 3000 rpm for 5 minutes at 4° C.±4° C., and placed in an ice-water bath. 200 uL of plasma was added to polypropylene tubes and kept in ice-water bath. 100 uL of internal standard working solution (40 ng/mL of phenoxybenzamine-d5) was added into all the tubes except those labeled with “BLANK.” 100 uL of 0.1 N HCl in 20% methanol was added to those labeled with BLANK and the tubes were vortexed for about 20 seconds. 400 uL of 1.7% phosphoric acid was added into all tubes. The tubes were vortexed for about 40 seconds and left in an ice-water bath. The Oasis™ HLB 1 cc (30 mg) cartridges (Waters) were washed first with 700 uL methanol and then with 700 uL water. The samples prepared above were then transferred into the cartridges which were then centrifuged at 1000 rpm for 2 minutes at 4° C.±4° C. Cartridges were then first washed with 700 uL water and then washed with 700 uL of 0.1% TFA in 40% methanol. Cartridges were then eluted twice with 400 μL of 0.1% TFA in 80% methanol, and all of the eluates were collected and diluted with 400 μL of 0.1% TFA. The extracted samples were then ready for analysis.
The mean concentration of the aged re-injected samples was compared with the mean concentration of the initial zero hour samples prepared at the same concentration as the QC samples.

[2] = Stability of phenoxybenzamine in whole blood; format: in vitro ADME, human; conditions: for WB Sample Amount Found, Mean: mean of six; for WB Sample Amount Found: single replicates
Protocol: Stability of phenoxybenzamine in human whole blood was determined by spiking phenoxybenzamine into fresh human whole blood. This was followed by the preparation of the whole blood samples into two sets: one set was immediately processed into plasma and the other set was stored at 4° C.±4° C. for up to two hours and then processed into plasma. Samples were extracted in replicates of six with control blank and analyzed.

[3] = Stability of phenoxybenzamine in various solvents; format: physicochemical
Protocol: Various solvents were examined for their abilities to stabilize phenoxybenzamine. The solvents examined were alcohol, acetonitrile (ACN), methanol (MeOH), acidified solvents (e.g., acidified MeOH and acidified ACN). Phenoxybenzamine in these solvents was not stable for 24 hr at 4° C. The stability of phenoxybenzamine was examined in acidified ACN with 0.5%, 1% and 2% formic acid (“FA”). Phenoxybenzamine was stable for ˜3 hr at RT and 4° C. The measured amount of phenoxybenzamine for neat standard in 0.5% FA in ACN was higher than those using 1% FA in ACN, and 2% FA in ACN.
The stability of phenoxybenzamine was examined in acidified MeOH (80% MeOH containing 0.1% TFA). Phenoxybenzamine was stable for at least 48 hours at 4° C., −25° C. and −70° C.
(§3) The stability of phenoxybenzamine in acidified plasma samples containing 1% FA, 1% H3PO4, 2% H3PO4 or 0.1N HCl was tested.

[4] = Stability of phenoxybenzamine in neat solution; format: physicochemical
Protocol: The stability of phenoxybenzamine in neat solutions was examined. The measured amount of phenoxybenzamine in neat solution dropped ˜90% in 24 hours at ambient temperature but ˜20% at 4° C.

[5] = Processed sample integrity; format: physicochemical; conditions: for Amount Found: single replicates; for % Difference: ~112 hours vs 0.0 hours, 4° C. ± 4° C.
Protocol: as §1, §2
The mean concentration at each time-point was compared with the mean concentration of the zero hour samples.

[6] = Stability of phenoxybenzamine in acidified plasma; format: in vitro ADME
Protocol: as §3

[7] = QC HIGH 19.232 ng/mL added, 0.0 hours
[8] = QC HIGH 19.232 ng/mL added, ~75 hours at 7° C. ± 4° C.
[9] = QC HIGH 19.232 ng/mL added, ~110 hours at 7° C. ± 4° C.
[10] = QC LOW 0.601 ng/mL added, 0.0 hours
[11] = QC LOW 0.601 ng/mL added, ~110 hours at 7° C. ± 4° C.
[12] = human whole blood, ~2 hours at 4° C.±4° C.
[13] = QC HIGH 19.232 ng/mL added, ~112 hours at 4° C. ± 4° C.
[14] = QC LOW 0.601 ng/mL added, ~112 hours at 4° C. ± 4° C.

Compound: CC(COc1ccccc1)N(CCCl)Cc1ccccc1 (racemic) [phenoxybenzamine, (RS)—N-benzyl-N-(2-chloroethyl)-1-phenoxy-propan-2-amine]
- Amount Found, Mean [1, 7]: 18.178 ng/mL
- Amount Found [1, 7]: 18.305 ng/mL and 18.069 ng/mL and 18.161 ng/mL
- Amount Found, Mean [1, 8]: 18.411 ng/mL
- Amount Found [1, 8]: 18.066 ng/mL and 18.686 ng/mL and 18.482 ng/mL
- Amount Found, Mean [1, 9]: 18.423 ng/mL
- Amount Found [1, 9]: 18.179 ng/mL and 18.435 ng/mL and 18.656 ng/mL
- % Difference ([1]; QC HIGH, ~75 hours vs 0.0 hours): 1.3%
- % Difference ([1]; QC HIGH, ~110 hours vs 0.0 hours): 1.3%
- Amount Found, Mean [1, 10]: 0.601 ng/mL
- Amount Found [1, 10]: 0.590 ng/mL and 0.603 ng/mL and 0.610 ng/mL
- Amount Found, Mean ([1]; QC LOW 0.601 ng/mL added, ~75 hours at 7° C. ± 4° C.): 0.615 ng/mL
- Amount Found ([1]; QC LOW 0.601 ng/mL added, ~75 hours in autosampler at 7° C. ± 4° C.): 0.610 ng/mL and 0.646 ng/mL and 0.590 ng/mL
- Amount Found, Mean [1, 11]: 0.603 ng/mL
- Amount Found [1, 11]: 0.602 ng/mL and 0.612 ng/mL and 0.595 ng/mL
- % Difference ([1]; QC LOW, ~75 hours vs 0.0 hours): 2.4%
- % Difference ([1]; QC LOW, ~110 hours vs 0.0 hours): 0.3%
- time for which extracted samples can be re-injected ([1]; extracted samples stored in autosampler at 7° C.±4° C.): up to 110 hours
- WB Sample Amount Found, Mean ([2]; human whole blood, time 0.0 hours): 3.357 ng/mL
- WB Sample Amount Found ([2]; human whole blood, time 0.0 hours, processed immediately into plasma): 3.379 ng/mL and 3.325 ng/mL and 3.381 ng/mL and 3.387 ng/mL and 3.305 ng/mL and 3.365 ng/mL
- WB Sample Amount Found, Mean [2, 12]: 3.297 ng/mL
- WB Sample Amount Found [2, 12]: 3.315 ng/mL and 3.330 ng/mL and 3.365 ng/mL and 3.328 ng/mL and 3.283 ng/mL and 3.160 ng/mL
- % Difference ([2]; human whole blood, ~2 hours vs 0.0 hours, 4° C.±4° C.): −1.8%
- time stable in whole blood ([2]; stored at 4° C.±4° C.): up to 2 hours
- measured amount for neat standard in 0.5% FA in ACN compared with 1% FA and 2% FA in ACN ([3]; 0.5% FA in ACN vs 1% and 2% FA in ACN): higher
- drop, autosampler stability ([3]; 0.5% FA in ACN, ~24 hr): ~70%
- autosampler re-injection stability, time stable ([3]; 80% MeOH containing 0.1% TFA): at least 24 hours
- time stable in acidified MeOH ([3]; 80% MeOH containing 0.1% TFA, 4° C., −25° C. and −70° C.): at least 48 hours
- time stable in acidified ACN ([3]; ACN with 0.5%, 1% and 2% formic acid, RT and 4° C.): ~3 h
- stability in solvents ([3]; alcohol, acetonitrile, methanol, acidified MeOH and acidified ACN, 24 hr at 4° C.): not stable
- drop of measured amount in neat solution ([4]; 24 hours at 4° C.): ~20%
- drop of measured amount in neat solution ([4]; 24 hours at ambient temperature): ~90%
- time for which integrity of processed samples is not affected ([5]; LOW and HIGH concentrations, 4° C.±4° C.): up to 112 hours
- Amount Found, Mean [5, 7]: 18.178 ng/mL
- Amount Found [5, 7]: 18.305 ng/mL and 18.069 ng/mL and 18.161 ng/mL
- Amount Found, Mean [5, 13]: 18.214 ng/mL
- Amount Found [5, 13]: 18.209 ng/mL and 18.214 ng/mL and 18.220 ng/mL
- % Difference ([5]; QC HIGH): 0.2%
- Amount Found, Mean [5, 10]: 0.601 ng/mL
- Amount Found [5, 10]: 0.590 ng/mL and 0.603 ng/mL and 0.610 ng/mL
- Amount Found, Mean [5, 14]: 0.583 ng/mL
- Amount Found [5, 14]: 0.574 ng/mL and 0.590 ng/mL and 0.586 ng/mL
- % Difference ([5]; QC LOW): −2.9%
- stability in acidified plasma ([6]; plasma containing 0.1N HCl): stable
- stability in acidified plasma ([6]; plasma containing 1% FA): stable except for 1% FA
- stability in acidified plasma ([6]; plasma containing 1% H3PO4): stable
- stability in acidified plasma ([6]; plasma containing 2% H3PO4): stable
